These compounds were tested on B834(DE3) or CAG18491 hosts with pQE15/pREP4 or pQE15-MRS/pREP4 (assay: Translational activity: mDHFR synthesis, statements covering several bacterial hosts (with pQE15 or pQE15-MRS)). Settings: amino acids at 60 mg/liter, both bacterial hosts.
Type: cell-based, E. coli
Description: Methionine analogues were synthesized via alkylation of diethylacetamidomalonate, as previously described (As described in Example I, infra; J. C. M. van Hest, D. A. Tirrell, FEBS Lett. 1998, 428, 68-70). Cultures of B834(DE3)/pQE15-MRS/pREP4 or B834(DE3)/pQE15/pREP4 or CAG18491/pQE15-MRS/pREP4 or CAG18491/pQE15/pREP4 in M9AA media were grown to an optical density of 0.90, and the cells were sedimented by centrifugation. The M9AA medium was prepared by supplementing sterile M9 medium with […] of each of the amino acids, 1 mM MgSO4, 0.2 wt % glucose, 1 mg/ml thiamine chloride, and […] calcium chloride. The antibiotics ampicillin and kanamycin were added at concentrations of 200 mg/l and 35 mg/l, respectively.
Cells were washed three times with M9 salts and resuspended to an optical density of 0.90 in M9 test media containing 19 amino acids plus 1) neither methionine nor analogue (negative control); 2) methionine (60 mg/liter, positive control); or 3) an analogue of interest (60 mg/liter). To test the effect of increasing the level of supplementation of the analogues, a set of experiments was also conducted in which the medium was supplemented with 500 mg/liter of methionine or the amino acid analogue. Expression of mDHFR was induced by addition of 0.4 mM isopropyl β-D-thiogalactopyranoside (IPTG), and protein synthesis was monitored after 4.5 hours.

Row | Structure (SMILES) | target protein mDHFR in SDS-PAGE
1 | C=CCOC[C@H](N)C(=O)O (racemic) [Analogue 10, o-allylserine] | not observed
2 | C#CCC(N)C(=O)O (stereo not drawn) [Analogue 13, propargylglycine] | not observed
3 | NC(CCCC(F)(F)F)C(=O)O (racemic) [Analogue 6, DL-6,6,6-trifluoro-2-amino hexanoic acid] | not observed

Reference: patent US7723070B2, “Overexpression of aminoacyl-tRNA synthetases for efficient production of engineered proteins containing amino acid analogues” (California Institute of Technology, priority 2000, dated 2010)
